Patent publication US20220265685A1, “METHODS AND COMPOSITIONS FOR IMPROVING COGNITIVE FUNCTION” (priority 2010, published 2022)
Read-outs that look alike come from different tables or passages of the source.

Key:
aged-impaired (AI) rats = assay: Radial Arm Maze (RAM) task, spatial memory retention of aged-impaired rats; assay type: in vivo, Long-Evans rats
Description: FIG. 1 depicts the effects of administering levetiracetam on the spatial memory retention of ten aged-impaired rats (AI) in an eight-arm Radial Arm Maze (RAM) test. Six treatment conditions are employed: vehicle control, levetiracetam (1.25 mg/kg/day), levetiracetam (2.5 mg/kg/day), levetiracetam (5 mg/kg/day), levetiracetam (10 mg/kg/day) and levetiracetam (20 mg/kg/day). In the RAM task used, there is a one-hour delay between presentation of a subset of arms (5 arms available and 3 arms blocked) and completion of the eight-arm win-shift task (eight arms available). Rats are pre-treated 30-40 minutes before daily trials with a one-time drug/control treatment. The number of errors made by the rats during the retention phase is used as a measure of spatial memory retention. Errors are defined as instances when rats enter an arm from which food has already been retrieved in the pre-delay component of the trial or when rats re-visit an arm in the post-delay session that had already been visited. Paired t-tests are used to compare the number of errors between different doses of levetiracetam and vehicle control.
FIG. 2 depicts the effects of administering donepezil only and administering a combination of donepezil and levetiracetam on the spatial memory retention of eight aged-impaired rats (AI) in an eight-arm Radial Arm Maze (RAM) test. Four treatment conditions are employed: vehicle control, donepezil only (1 mg/kg/day), donepezil (2 mg/kg/day), and a combination of donepezil (1 mg/kg/day) and levetiracetam (2.5 mg/kg/day). In the RAM task used, there is a two-hour delay between presentation of a subset of arms (5 arms available and 3 arms blocked) and completion of the eight-arm win-shift task (eight arms available). Rats are pre-treated 30-40 minutes before daily trials with a one-time drug/control treatment. The number of errors made by the rats during the retention phase is used as a measure of spatial memory retention. Errors are defined as instances when rats enter an arm from which food has already been retrieved in the pre-delay component of the trial or when rats re-visit an arm in the post-delay session that have already been visited. Paired t-tests are used to compare the number of errors between different doses of drug treatment and vehicle control.
Aged, male Long-Evans rats were obtained at 8 to 9 months of age from Charles River Laboratories (Raleigh, N.C.) and housed in a vivarium until 24 to 26 months of age. All rats were individually housed at 25° C. and maintained on a 12 h light/dark cycle. Food and water were provided ad libitum unless noted otherwise. The rats were examined for health and pathogen-free status throughout the experiments, as well as necropsies at the time of killing.
All rats were screened in a standardized assessment of spatial cognition. This background assessment used the above-described well-established MWM protocol. […] The selected AI rats were tested for their memory of new spatial information in a Radial Arm Maze (RAM) task, under different drug/control treatment conditions: vehicle control, donepezil only, levetiracetam only, and a combination of donepezil and levetiracetam. The RAM task also extended the behavioral assessment to spatial memory using appetitive motivation. We used a protocol that allowed within-subject assessment across drugs at different doses and in combinations (Koh et al., Neuropsychopharmacology, epub. 1-10, (2009)).
The radial maze consisted of eight arms projecting from each side of an octagonal center platform, with food well located at the distal end of each arm. Plexiglasm blocks could be positioned to prevent entry into any arm. Extra-maze cues were provided in the room surrounding the maze and illumination was provided by an overhead light.

aMCI subjects [1] = assay: fMRI activity of medial temporal lobe subregions during the explicit 3-alternative forced choice task; assay type: in vivo, human; settings: levetiracetam 125 mg twice a day for two weeks vs placebo
Description: (§1) A within-subjects trial of 8 weeks duration, involving 17 amnestic MCI (aMCI) subjects and 17 age-matched controls with a low dose treatment of levetiracetam is conducted. During the course of the study, each aMCI subject receives both drug and placebo treatments separately in two periods of two weeks each, with the order of treatments among different aMCI subjects counterbalanced (see FIG. 3). Age-matched control subjects treated with placebo serve as a further control. Cognitive testing and fMRI imaging data are obtained from the subjects after each two week period of drug/placebo treatment.
(§2) As described above, the drug treatment period is the two weeks preceding Visit 1 or 2 (with the two week period preceding the other Visit being the placebo phase). For the subjects receiving the drug treatment, half a scored 250 mg tablet of levetiracetam is used to achieve a dose of […], which is approximately 3.6 mg/kg/day (assuming an average adult human weight of 70 kg).
Imaging data are obtained through high-resolution methods developed in the Stark laboratory. […]
Group data are analyzed using a two-way Analysis of Variance (ANOVA) with trial types and group as fixed factors, and subject as a random factor nested within group. […]

aMCI subjects [2] = assay: explicit 3-alternative forced choice task (lure stimuli), performance; assay type: in vivo, human; settings: levetiracetam 125 mg twice a day for two weeks vs placebo, p=0.039
Description: There are various tests known in the art for assessing cognitive function in humans, for example and without limitation, the clinical global impression of change scale (CIBIC-plus scale); the Mini Mental State Exam (MMSE); the Neuropsychiatric Inventory (NPI); the Clinical Dementia Rating Scale (CDR); the Cambridge Neuropsychological Test Automated Battery (CANTAB); the Sandoz Clinical Assessment-Geriatric (SCAG), the Buschke Selective Reminding Test (Buschke and Fuld, 1974); the Verbal Paired Associates subtest; the Logical Memory subtest; the Visual Reproduction subtest of the Wechsler Memory Scale-Revised (WMS-R) (Wechsler, 1997); or the Benton Visual Retention Test. […]
as §2
The activity of the subject's medial temporal lobe is measured by functional MRI during the subject's participation in an explicit 3-alternative forced choice task, where participants view novel, repeated and similar (“lure”) stimuli. […]

aMCI subjects [3] = assay: neuropsychological assessment (common cognitive tests); assay type: in vivo, human; settings: levetiracetam 125 mg twice a day for two weeks
Description: as §1
All participants undergo neuropsychological evaluation at the time of assessment for treatment efficacy (Visits 1 and 2), as well as at the Baseline Visit.
The evaluation occurs outside of the scanner and includes the Buschke Selective Reminding Test (Buschke and Fuld, 1974) and the Verbal Paired Associates subtest, the Logical Memory subtest, the Visual Reproduction subtest of the Wechsler Memory Scale-Revised (WMS-R) (Wechsler, 1997), and the Benton Visual Retention Test, as these tasks are particularly sensitive to medial temporal lobe function and early memory problems (Marquis et al., 2002 and Masur et al., 1994). Additionally, subjects are asked to complete tests of more general cognitive function such as tests to assess general mental status, executive function, attention and general naming ability. All neuropsychological tests are administered by a trained research assistant during a 60-minute session. As the three neuropsychological assessments in this study occur within a time period of 8 weeks, different versions of the neuropsychological tests are used to minimize test specific practice effects. Breaks are provided to the subject as needed.
as §2

[4] = cited from earlier work
[5] = biological target: synaptic vesicle protein 2A (SV2A) (Homo sapiens, UniProt Q7L0J3); settings: Noyer et al. 1995; Fuks et al. 2003; Lynch et al. 2004; Gillard et al. 2006; cited from earlier work
Sequence of synaptic vesicle protein 2A (SV2A) (Q7L0J3 whole entry, species assumed): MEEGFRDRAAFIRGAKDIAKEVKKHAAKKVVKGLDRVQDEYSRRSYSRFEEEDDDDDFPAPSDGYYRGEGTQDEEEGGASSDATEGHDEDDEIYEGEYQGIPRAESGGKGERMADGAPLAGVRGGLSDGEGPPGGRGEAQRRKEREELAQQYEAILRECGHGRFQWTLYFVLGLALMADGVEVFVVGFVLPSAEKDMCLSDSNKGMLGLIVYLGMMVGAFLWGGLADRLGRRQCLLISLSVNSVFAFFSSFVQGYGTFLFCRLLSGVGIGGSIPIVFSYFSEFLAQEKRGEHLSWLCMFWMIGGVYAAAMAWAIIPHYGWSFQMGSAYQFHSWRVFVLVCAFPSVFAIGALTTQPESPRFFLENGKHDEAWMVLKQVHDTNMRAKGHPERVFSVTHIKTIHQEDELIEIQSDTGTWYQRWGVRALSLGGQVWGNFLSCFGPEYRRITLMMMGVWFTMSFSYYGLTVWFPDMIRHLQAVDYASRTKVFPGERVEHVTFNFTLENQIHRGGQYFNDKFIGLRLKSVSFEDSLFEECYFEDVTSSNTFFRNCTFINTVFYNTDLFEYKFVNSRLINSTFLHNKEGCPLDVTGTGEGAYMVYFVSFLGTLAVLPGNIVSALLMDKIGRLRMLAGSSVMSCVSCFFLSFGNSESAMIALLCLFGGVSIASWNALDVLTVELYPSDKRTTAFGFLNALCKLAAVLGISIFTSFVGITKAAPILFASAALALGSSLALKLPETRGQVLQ

With `COc1cc2c(cc1OC)C(=O)C(CC1CCN(Cc3ccccc3)CC1)C2` (stereo not shown) [donepezil, 2,3-dihydro-5,6-dimethoxy-2-((1-(phenylmethyl)-4-piperidinyl)methyl)-1H-inden-1-one] the “memory performance relative to vehicle control treatment” value (aged-impaired (AI) rats; donepezil 1 mg/kg/day alone, two-hour delay RAM, t(7)=0, p=1.00) was “does not significantly improve memory performance”, the “average no. of errors ± standard error of the mean (SEM), retention test” value (aged-impaired (AI) rats; donepezil 1 mg/kg/day i.p., two-hour delay RAM, AI rats n=8, vehicle control 2.88±0.67) was 2.88±0.46 and the “memory performance relative to vehicle control treatment” value (aged-impaired (AI) rats; donepezil 2 mg/kg/day alone, two-hour delay RAM, t(7)=0.91, p=0.930) was “does not significantly improve memory performance”. The “average no. of errors ± SEM, retention test” value (aged-impaired (AI) rats; donepezil 2 mg/kg/day i.p., two-hour delay RAM, AI rats n=8, vehicle control 2.88±0.67) was 2.81±0.43.
In the case of `CC[C@@H](C(N)=O)N1CCCC1=O` [levetiracetam, (2S)-2-(2-oxopyrrolidin-1-yl) butanamide], the “effective doses of levetiracetam used in the animal model” value (aged-impaired (AI) rats; AI rats, given acutely) is reported as 5 to 10 mg/kg, the “memory performance in AI rats” value (aged-impaired (AI) rats; levetiracetam 2.5 mg/kg/day individually, in the absence of donepezil) is reported as “does not significantly improve memory performance” and the “average no. of errors ± standard error of the mean (SEM), retention test” value (aged-impaired (AI) rats; levetiracetam 5 mg/kg/day i.p., one-hour delay RAM, AI rats n=10, vehicle control 2.00±0.42) is reported as 0.75±0.32. For the same compound, the “memory performance relative to vehicle control treatment” value (aged-impaired (AI) rats; levetiracetam 5 mg/kg/day, one-hour delay RAM, t(9)=2.18, p=0.057) was “significantly improves memory performance”, the “average no. of errors ± SEM, retention test” value (aged-impaired (AI) rats; levetiracetam 10 mg/kg/day i.p., one-hour delay RAM, AI rats n=10, vehicle control 2.00±0.42) was 0.80±0.27 and the “memory performance relative to vehicle control treatment” value (aged-impaired (AI) rats; levetiracetam 10 mg/kg/day, one-hour delay RAM, t(9)=2.37, p=0.042) was “significantly improves memory performance”. For the same compound, the “performance of AI rats in the radial maze task” value (aged-impaired (AI) rats; levetiracetam 20 mg/kg) was “fails to improve the performance”, the “entorhinal cortex (EC) activity during memory judgments” value (aMCI subjects [1]) was “increases EC activity” and the “DG/CA3 activity during lure stimuli correctly identified as "similar"” value (aMCI subjects [1]; p=0.037) was “reduces DG/CA3 hyper-activity”. The “performance in the explicit 3-alternative forced choice task” value (aMCI subjects [2]) was “improves significantly”, the “performance in Benton Visual Retention Test” value (aMCI subjects [3]) was “fail to rescue performance” and the “performance in Buschke Selective Reminding Test—Delayed Recall” value (aMCI subjects [3]) was “fail to rescue performance”. The “performance in Verbal Paired Associates Test—Delayed Recall” value (aMCI subjects [3]) was “fail to rescue performance”, the “performance in Verbal Paired Associates Test—Recognition” value (aMCI subjects [3]) was “fail to rescue performance” and the absorption ([4]; after oral administration) was “rapidly and almost completely absorbed”. For the same compound, the plasma half-life ([4]; expected in elderly due to decreased renal function) was 9 to 10 h, the “time of peak plasma concentrations” value ([4]; following oral administration) was “about 1 hour” and the plasma half-life ([4]; in vivo) was “approximately 7±1 hour”. For the same compound, the “time to steady state” value ([4]; multiple twice-daily dosing) was 2 days, the “bioavailability, effect of food” value ([4]; oral) was “not affected by food” and the “binding to SV2A” value [5] was “binds to a specific site in the CNS: the synaptic vesicle protein 2A (SV2A)”.
